ChEMBL document CHEMBL1155048, “Effect of novel N-cyano-tetrahydro-pyridazine compounds, a class of cathepsin K inhibitors, on the bone resorptive activity of mature osteoclasts” (Bioorg Med Chem Lett, 2008)

How the values were obtained:
Cathepsin K = biological target: T1, Cathepsin K (Homo sapiens, UniProt P43235); assay: Inhibition of human recombinant cathepsin K
T1 sequence (P43235 whole entry): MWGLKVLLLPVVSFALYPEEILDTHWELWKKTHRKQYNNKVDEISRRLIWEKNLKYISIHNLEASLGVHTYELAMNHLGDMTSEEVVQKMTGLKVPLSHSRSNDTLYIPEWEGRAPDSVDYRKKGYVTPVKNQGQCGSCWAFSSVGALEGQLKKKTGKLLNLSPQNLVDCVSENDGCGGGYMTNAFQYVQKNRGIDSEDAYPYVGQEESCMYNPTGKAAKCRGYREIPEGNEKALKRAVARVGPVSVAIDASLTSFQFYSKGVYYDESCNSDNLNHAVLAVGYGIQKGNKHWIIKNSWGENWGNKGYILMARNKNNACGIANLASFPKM

Procathepsin L = Procathepsin L (Homo sapiens, UniProt P07711); assay: Inhibition of human recombinant cathepsin L
Procathepsin L, sequence (P07711 whole entry): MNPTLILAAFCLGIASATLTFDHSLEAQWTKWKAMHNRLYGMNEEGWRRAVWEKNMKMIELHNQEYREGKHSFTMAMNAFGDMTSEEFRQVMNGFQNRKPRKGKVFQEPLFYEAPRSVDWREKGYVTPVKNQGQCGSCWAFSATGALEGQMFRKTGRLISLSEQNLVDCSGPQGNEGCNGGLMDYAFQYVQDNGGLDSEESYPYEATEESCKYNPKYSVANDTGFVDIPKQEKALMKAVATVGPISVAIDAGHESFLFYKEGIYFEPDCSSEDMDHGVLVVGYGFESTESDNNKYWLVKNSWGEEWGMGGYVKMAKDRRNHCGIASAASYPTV

Cathepsin B = Cathepsin B (Homo sapiens, UniProt P07858); assay: Inhibition of human recombinant cathepsin B
RAW264.7 = assay: Inhibition of RANKL-induced bone resorption of multinucleated osteoclasts from mouse RAW264.7 cells by pit formation assay; type: functional, cell-based
Macrophage = assay: Inhibition of RANKL-induced bone resorption of multinucleated osteoclasts from BALB/c mouse bone marrow-derived macrophages by pit formation assay; type: functional, cell-based

Structure (SMILES)	IC50 (Cathepsin K)	IC50 (Procathepsin L)	IC50 (Cathepsin B)	Activity (RAW264.7)	Activity (Macrophage)
CC(C)C(Nc1cccc(C(F)(F)F)c1)C(=O)N1CCCCN1C#N (stereo unspecified)	23 nM	48 nM	23 nM		
CC(C)C(NC(=O)OC(C)(C)C)C(=O)N1CCCCN1C#N (stereo unspecified)	55 nM	130 nM	38 nM		
CC(C)C(Nc1ccccc1)C(=O)N1CCCCN1C#N (stereo unspecified)	25 nM	625 nM	53 nM		
CC(C)C(Nc1ccc(Cl)cc1)C(=O)N1CCCCN1C#N (stereo unspecified)	24 nM	610 nM	110 nM		

The next molecules have a lower IC50 (Cathepsin K) than those just listed; values first:

IC50 (Cathepsin K)	IC50 (Procathepsin L)	IC50 (Cathepsin B)	Structure (SMILES)	Activity (RAW264.7)	Activity (Macrophage)
11 nM	240 nM	32 nM	CC(C)C(Nc1cccc(Cl)c1)C(=O)N1CCCCN1C#N (stereo unspecified)		
4 nM	730 nM	40 nM	CC(C)C(Nc1cccc(C#N)c1)C(=O)N1CCCCN1C#N (stereo unspecified)		
1 nM	145 nM	11 nM	CC(C)C(NC(=O)OCc1ccccc1)C(=O)N1CCCCN1C#N (stereo unspecified)	Dose-dependent effect	Dose-dependent effect
6 nM	355 nM	32 nM	Cc1cccc(NC(C(=O)N2CCCCN2C#N)C(C)C)c1 (stereo unspecified)		
